Test results: article PMC7070908, “Structure-Guided Identification of Black Cohosh (Actaea racemosa) Triterpenoids with In Vitro Activity against Multiple Myeloma” (Molecules, 2020)
In brackets after ≈: the same amount, converted by molar mass.

Tests used:
MCF7 cells = tested on: MCF7 cells; design: method as in PMID 20564500; conditions: cited from earlier work
U266 myeloma cell line = experiment: Cytotoxicity, flow cytometry (AnnexinV/propidium iodide negativity), U266; format: cell-based, human; conditions: for MM Cells % Alive U266 / activity on U266 (in words): 24 h; for activity on U266 (in words): up to 37.5 µM
Protocol: (§1) Induction of apoptosis was measured in myeloma cell lines NCI-H929, OPM-2, and U266 as well as in peripheral blood mononuclear cells (PBMCs) of healthy donors by flow cytometry using established protocols thereby staining the cells with AnnexinV-fluorescein isothiocyanate and propidium iodide. Bortezomib (Eubio, Vienna, Austria) was used as positive control. Cell lines were purchased from DSMZ (Braunschweig, Germany) and routinely fingerprinted and tested for mycoplasma negativity. All cells (cell lines and PBMC) were grown in RPMI-1640 medium (Life Technologies, Paisley, UK) supplemented with 10% fetal calf serum (FCS; PAA, Linz, Austria), L-glutamine 100 µg/mL, and penicillin-streptomycin 100 U/mL. PBMCs from healthy donors were used after obtaining written informed consent at the University Hospital Salzburg (ethics committee approval 415-E/1287/6-2011). Cells were subjected to Ficoll separation (Ficoll PaqueTM) and incubated in RPMI-1640 Media with supplements as above. In brief, 0.5 × 10^6 myeloma cells/mL or similar numbers of PMBCs were incubated for 24 h and 48 h with or without the tested compounds dissolved in dimethyl sulfoxide at different concentrations. At least three analyses in triplicates were performed for each cell line and a solvent control was always included. As a positive control, the proteasome inhibitor bortezomib (BTZ) was used at concentrations of 10 and 5 nM. The extent of non-apoptotic cells (AnnexinV/propidium iodide negativity) was calculated as percentage of viable cells in respect to the untreated control. Data are shown as mean percentage of viable cells and standard error of the mean (SEM) (error bars).

OPM-2 myeloma cell line = experiment: Cytotoxicity, flow cytometry (AnnexinV/propidium iodide negativity), OPM-2; format: cell-based, human; conditions: for MM Cells % Alive OPM-2 / activity on OPM-2 (in words): 24 h; for activity on OPM-2 (in words): up to 37.5 µM
Protocol: as §1

[1] = tested on: doxorubicin-resistant-MCF7 (R-MCF7) cells; design: method as in PMID 20564500; conditions: cited from earlier work
[2] = tested on: NCI-H929 myeloma cell line; experiment: Cytotoxicity, flow cytometry (AnnexinV/propidium iodide negativity), NCI-H929; format: cell-based, human; conditions: for MM Cells % Alive NCI-H929 / activity on NCI-H929 (in words): 24 h; for activity on NCI-H929 (in words): up to 37.5 µM
Protocol: as §1

[3] = tested on: peripheral blood mononuclear cells (PBMCs) of healthy donors; experiment: Cytotoxicity, flow cytometry (AnnexinV/propidium iodide negativity), PBMC of healthy donors; format: cell-based, human; conditions: for PBMC % Alive: 24 h, second round (Table 3)
Protocol: as §1

[4] = 12.5 µM, second round (Table 3)
[5] = 37.5 µM, second round (Table 3)
[6] = 5 nM, positive control (Table 3)
[7] = 10 nM, positive control (Table 3)

Row | SMILES | MM Cells % Alive U266 (U266 myeloma cell line; [4]) [%] | MM Cells % Alive U266 (U266 myeloma cell line; 25 µM, second round (Table 3)) [%] | MM Cells % Alive U266 (U266 myeloma cell line; [5]) [%] | activity on U266 (in words) (U266 myeloma cell line) | MM Cells % Alive OPM-2 (OPM-2 myeloma cell line; [4]) [%] | MM Cells % Alive OPM-2 (OPM-2 myeloma cell line; 25 µM, second round (Table 3)) [%] | MM Cells % Alive OPM-2 (OPM-2 myeloma cell line; [5]) [%] | activity on OPM-2 (in words) (OPM-2 myeloma cell line) | MM Cells % Alive NCI-H929 [2, 4] [%] | MM Cells % Alive NCI-H929 ([2]; 25 µM, second round (Table 3)) [%] | MM Cells % Alive NCI-H929 [2, 5] [%] | activity on NCI-H929 (in words) [2] | further results
1 | CC1CC2OC3(OC2C(C)(C)O)C1C1(C)CCC24CC25CCC(OC2OCC(O)C(O)C2O)C(C)(C)C5CCC4C1(C)C3O [Compound 6, cimigenol-3-O-β-D-xylopyranoside] | 94.8 ± 3.0 | 94.5 ± 3.5 | 93.5 ± 3.2 | no activity | 101.7 ± 0.9 | 99.5 ± 1.8 | 100.5 ± 2.4 | no activity | 98.5 ± 0.8 | 91.8 ± 3.4 | 88.5 ± 0.3 | no activity | activity against MCF7 (in words) (MCF7 cells): no activity; activity against R-MCF7 (in words) [1]: no activity
2 | CC(C)C[C@H](NC(=O)[C@H](Cc1ccccc1)NC(=O)c1cnccn1)B(O)O [BTZ, bortezomib, reference compound] |  |  |  |  |  |  |  |  |  |  |  |  | MM Cells % Alive U266 (U266 myeloma cell line; [6]): 80.7 ± 14.1%; MM Cells % Alive U266 (U266 myeloma cell line; [7]): 25.0 ± 8.3%; MM Cells % Alive OPM-2 (OPM-2 myeloma cell line; [6]): 85.3 ± 7.6%; MM Cells % Alive OPM-2 (OPM-2 myeloma cell line; [7]): 66.0 ± 9.4%; MM Cells % Alive NCI-H929 [2, 6]: 3.0 ± 1.0%; MM Cells % Alive NCI-H929 [2, 7]: 6.3 ± 5.4%
3 | COC(C)(C)C1OC23OC1CC(C)C2C1(C)CCC24CC25CCC(OC2OCC(O)C(O)C2O)C(C)(C)C5CCC4C1(C)C3O [Compound 8, 25-O-methyl-cimigenol-3-O-β-D-xylopyranoside] | 102.0 ± 3.0 | 97.5 ± 3.8 | 81.0 ± 11.9 |  | 97.8 ± 2.1 | 84.3 ± 4.5 | 27.0 ± 9.4 |  | 84.8 ± 5.0 | 31.3 ± 6.6 | 5.0 ± 1.7 |  | PBMC % Alive ([3]; 12.5 µM): 104.3 ± 0.3%; PBMC % Alive ([3]; 25 µM): 96.3 ± 1.7%; PBMC % Alive ([3]; 37.5 µM): 64.3 ± 8.0%; IC50 PBMC ([3]; incubation for 24 h): 26.0 µg/mL (≈ 41 µM); IC50 U266 (U266 myeloma cell line; incubation for 24 h): 31.1 µg/mL (≈ 49 µM); IC50 OPM-2 (OPM-2 myeloma cell line; incubation for 24 h): 20.7 µg/mL (≈ 32.6 µM); IC50 NCI-H929 ([2]; incubation for 24 h): 14.2 µg/mL (≈ 22.4 µM)
4 | C=C(C)C1OC23OC1CC(C)C2C1(C)CCC24CC25CCC(OC2OCC(O)C(O)C2O)C(C)(C)C5CCC4C1(C)C3O [Compound 9, 25-anhydrocimigenol-3-O-α-L-arabinopyranoside] | 101.5 ± 5.1 | 101.8 ± 4.3 | 101.3 ± 3.3 | no effect | 95.8 ± 2.4 | 100.0 ± 1.9 | 104.0 ± 4.7 | no effect | 96.0 ±1.0 | 92.8 ± 1.7 | 92.0 ± 1.5 | no effect | 
5 | CC1CC2OC3(OC2C(C)(C)O)C1C1(C)CCC24CC25CCC(OC2OCC(O)C(O)C2O)C(C)(C)C5CCC4C1(C)C3O [Compound 5, cimigenol-3-O-α-L-arabinopyranoside] | 95.0 ± 3.1 | 95.8 ± 2.8 | 93.5 ± 3.5 | no activity | 99.8 ± 2.0 | 103.3 ± 1.4 | 103.5 ± 1.3 | no activity | 98.8 ± 0.9 | 97.0 ± 1.2 | 96.3 ± 1.3 | no activity | 
